Experimental data: patent US20230116703A1, “NOVEL ERGOLINES AND METHODS OF TREATING MOOD DISORDERS” (priority 2021, published 2023)
pEC50: −log10 of the molar value.

Columns and labels:
[1] = Metabolic stability in mouse liver microsomes (MLM); format: in vitro ADME; settings: 0.50 mg protein per mL; for t1/2: MLM (CD-1), 1 μM; for microsomal CLint at 1 μM: mouse, pooled mouse liver microsomes, pH 7.4, MLM (CD-1)
Text: MLM Stability Pooled MLM from CD-1 mice (BIOIVT M00501) were used.

[2] = Metabolic stability in rat liver microsomes (RLM); settings: for t1/2: RLM, 0.50 mg protein per mL; for microsomal CLint at 1 μM: both, rat, pooled rat liver microsomes, pH 7.4
5-HT2A receptor [3] = biological target: T1, 5-HT2A receptor (Homo sapiens, UniProt P28223); test: biochemical; format: binding; settings: 1 nM [^3H]ketanserin, HEK293 stable cell line; read-out: 5-HT2A Receptor Ki (nM) ([^3H]ketanserin)
T1 construct: host or cells: HEK293
Method: Affinity of the test compounds for the 5-HT2A receptor was determined in radioligand binding experiments with [^3H]ketanserin by WuXi AppTec (Hong Kong) Limited, using methods adapted from the literature and under conditions described in Table 1.

[4] = Metabolic stability in human liver microsomes (HLM); format: in vitro ADME; settings: for t1/2: 1 μM, 0.50 mg protein per mL; for microsomal CLint at 1 μM / half-life at 1 μM: both sexes, human, pooled human liver microsomes, pH 7.4, 0.50 mg protein per mL
Text: HLM Stability. Pooled HLM from adult male and female donors (Corning 452117) were used.

5-HT1B receptor = 5-HT1B receptor (Homo sapiens, UniProt P28222); test: cAMP accumulation agonist assay at 5-HT1B; format: cell-based; settings: cAMP, agonist; for pEC50: read-out: 5-HT1B EC50
Method: Disclosed compounds were tested for agonist activity at several serotonin receptor subtypes (5-HT2A, […], 5-HT2C, and 5-HT1A) using Ca^2+ flux functional assays and the 5-HT1B receptor using a cAMP accumulation assay, with the results summarized in Table 4. […] Potent agonist activity was also observed at the other serotonin receptors tested, although the selectivity profile among the receptors varied across compounds. […]. However, at the same time, the N-propyl compounds were more efficacious agonists at 5-HT2B than the corresponding N-methyl compounds. The selectivity of disclosed compounds for 5-HT2A over 5-HT2C and 5-HT1A was less predictable and varied widely across compounds, ranging from ˜1:6 to ˜20:1 (2C/2A) in the case of 5-HT2C and from ˜1:4 to >100:1 (1A/2A) in the case of 5-HT1A. […] An azetidinyl amide substituent tended to increase potency at 5-HT1A relative to 5-HT2A.
Functional Assay at 5-HT1B. Agonist activity at 5-HT1B was determined using a cAMP accumulation protocol at WuXi AppTec (Hong Kong) Limited according to their standard protocols. Briefly, stably transfected cells were plated in an OptiPlate-384 well plate, incubated at RT for 60 mins, and cAMP standard solution (800 nM, 10 μL) was added to the blank well. Then, 10 μL detection reagent was added to each well, the plate incubated for 60 mins at RT, and the plate read using EnVision.

5-HT2A receptor [5] = biological target: T1, 5-HT2A receptor; test: cell-based; format: cell-based; settings: for pEC50 / 5-HT2A % Act @ Max Dose: Ca^2+ flux, agonist; for pEC50: read-out: 5-HT2A EC50
Method: (§1) Functional Assays at 5-HT2A, 5-HT2B, and 5-HT1A. Agonist activity at 5-HT2A, 5-HT2B, and 5-HT1A receptors was determined using a FLIPR Ca^2+ flux assay at WuXi AppTec (Hong Kong) Limited according to their standard protocols. Briefly, stably transfected cells expressing the receptor of interest (HEK293 for 5-HT2A and 5-HT2B; CHO cells for 5-HT1A) were grown and plated in a 384 well plate and incubated at 37° C. and 5% CO2 overnight. A solution of 250 mM probenecid in 1 mL FLIPR assay buffer was prepared fresh. This was combined with a fluorescent dye (Fluo-4 Direct™) to make a final assay concentration of 2.5 mM. […] The fluorescent dye was then added to the assay plate along with assay buffer to a final volume of 40 μL. The cell plate was incubated for 50 min at 37° C. and 5% CO2 and placed into the FLIPR Tetra along with the compound plate. 10 μL of references and compounds were then transferred from the compound plate into the cell plate and the fluorescent signal was read.

5-HT1A receptor = biological target: T2, 5-HT1A receptor (Homo sapiens, UniProt P08908); test: cell-based; settings: Ca^2+ flux, agonist; for pEC50: read-out: 5-HT1A EC50
T2 construct: host or cells: CHO cells
T2 sequence (P08908 1-422): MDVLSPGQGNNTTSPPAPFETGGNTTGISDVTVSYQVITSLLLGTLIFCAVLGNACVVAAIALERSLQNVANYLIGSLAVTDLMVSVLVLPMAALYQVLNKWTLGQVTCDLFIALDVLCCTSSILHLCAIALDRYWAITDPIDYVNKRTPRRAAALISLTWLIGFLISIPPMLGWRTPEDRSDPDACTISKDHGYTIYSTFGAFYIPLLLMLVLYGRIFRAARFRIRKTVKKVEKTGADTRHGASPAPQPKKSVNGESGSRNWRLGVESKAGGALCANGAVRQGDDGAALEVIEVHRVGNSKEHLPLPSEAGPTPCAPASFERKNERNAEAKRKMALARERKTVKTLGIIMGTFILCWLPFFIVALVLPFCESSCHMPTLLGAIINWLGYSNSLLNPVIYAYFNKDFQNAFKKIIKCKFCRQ
Method: as §1

5-HT2B receptor = biological target: T3, 5-HT2B receptor (Homo sapiens, UniProt P41595); test: cell-based; settings: Ca^2+ flux, agonist; for pEC50: read-out: 5-HT2B EC50
T3 construct: host or cells: HEK293
Method: as §1

Chain of 5-HT1B receptor (P28222 whole entry): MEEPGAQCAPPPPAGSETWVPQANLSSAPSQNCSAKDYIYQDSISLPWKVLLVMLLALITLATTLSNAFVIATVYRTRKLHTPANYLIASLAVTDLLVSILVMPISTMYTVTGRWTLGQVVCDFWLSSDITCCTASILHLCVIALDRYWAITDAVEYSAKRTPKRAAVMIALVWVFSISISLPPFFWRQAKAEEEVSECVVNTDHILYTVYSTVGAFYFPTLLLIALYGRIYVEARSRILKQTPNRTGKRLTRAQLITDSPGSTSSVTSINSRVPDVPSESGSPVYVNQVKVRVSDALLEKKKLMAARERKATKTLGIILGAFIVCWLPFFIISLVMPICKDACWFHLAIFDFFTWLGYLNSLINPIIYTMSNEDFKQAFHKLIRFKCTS
T3 sequence (P41595 whole entry): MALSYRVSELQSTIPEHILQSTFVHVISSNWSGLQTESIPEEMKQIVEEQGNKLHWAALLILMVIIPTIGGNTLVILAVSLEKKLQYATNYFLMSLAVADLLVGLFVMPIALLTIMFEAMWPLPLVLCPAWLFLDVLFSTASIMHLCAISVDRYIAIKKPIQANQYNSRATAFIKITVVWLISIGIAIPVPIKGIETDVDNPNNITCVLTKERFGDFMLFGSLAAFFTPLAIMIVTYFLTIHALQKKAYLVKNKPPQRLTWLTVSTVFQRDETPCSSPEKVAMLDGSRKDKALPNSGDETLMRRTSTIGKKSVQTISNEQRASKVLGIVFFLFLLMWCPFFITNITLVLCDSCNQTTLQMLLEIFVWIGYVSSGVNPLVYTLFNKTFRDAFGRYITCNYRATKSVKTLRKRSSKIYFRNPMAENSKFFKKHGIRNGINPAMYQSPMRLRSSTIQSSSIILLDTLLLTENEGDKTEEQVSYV
T1 sequence (P28223 whole entry): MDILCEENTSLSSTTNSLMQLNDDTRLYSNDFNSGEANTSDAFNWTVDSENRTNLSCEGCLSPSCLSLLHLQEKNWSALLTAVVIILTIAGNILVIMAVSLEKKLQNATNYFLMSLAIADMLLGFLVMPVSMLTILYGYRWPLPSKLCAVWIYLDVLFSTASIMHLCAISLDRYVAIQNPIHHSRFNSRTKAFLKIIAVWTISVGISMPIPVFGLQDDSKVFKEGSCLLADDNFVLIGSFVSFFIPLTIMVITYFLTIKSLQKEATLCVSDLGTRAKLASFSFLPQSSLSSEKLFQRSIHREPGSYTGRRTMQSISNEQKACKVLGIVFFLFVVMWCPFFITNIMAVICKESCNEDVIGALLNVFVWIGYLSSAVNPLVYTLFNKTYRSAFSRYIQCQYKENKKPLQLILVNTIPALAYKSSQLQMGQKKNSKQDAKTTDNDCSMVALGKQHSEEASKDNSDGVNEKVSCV

SMILES	t1/2 [1]	microsomal CLint at 1 μM [1]	t1/2 [2]	microsomal CLint at 1 μM [2]	Ki (5-HT2A receptor [3])	t1/2 [4]	microsomal CLint at 1 μM [4]	pEC50 (5-HT1B receptor)	pEC50 (5-HT2A receptor [5])	pEC50 (5-HT1A receptor)	pEC50 (5-HT2B receptor)	5-HT1A % Act @ Max Dose (5-HT1A receptor)	half-life at 1 μM [4]	5-HT1B % Act @ Max Dose (5-HT1B receptor)	agonist activity at serotonin receptors (in words) (5-HT2A receptor [5]; Ca^2+ flux / cAMP functional assays, receptors tested)	5-HT2A % Act @ Max Dose (5-HT2A receptor [5])	5-HT2B % Act @ Max Dose (5-HT2B receptor)
CCN(CC)C(=O)[C@@H]1C=C2c3cccc4[nH]cc(c34)C[C@H]2N(Cc2ccccc2O)C1 [Compound 16, (6aR,9R)—N,N-diethyl-7-(2-hydroxybenzyl)-4,6,6a,7,8,9-hexahydroindolo[4,3-fg]quinoline-9-carboxamide]	1.3 min	1050 µL/min/mg	2.2 min	616 µL/min/mg	2.18 nM	4.9 min	286 µL/min/mg	6.17	6.26	< 5.00	< 5.00						
CCN(CC)C(=O)[C@@H]1C=C2c3cccc4[nH]cc(c34)C[C@H]2N(Cc2cccc(OC)c2)C1 [Compound 18, (6aR,9R)—N,N-diethyl-7-(3-methoxybenzyl)-4,6,6a,7,8,9-hexahydroindolo[4,3-fg]quinoline-9-carboxamide]	2.6 min	524 µL/min/mg	5.3 min	263 µL/min/mg	3.41 nM	13.6 min	102 µL/min/mg	5.75	6.64	< 5.00	< 5.00						
CCN(CC)C(=O)[C@@H]1C=C2c3cccc4[nH]cc(c34)C[C@H]2N(Cc2ccc(OC)cc2)C1 [Compound 19, (6aR,9R)—N,N-diethyl-7-(4-methoxybenzyl)-4,6,6a,7,8,9-hexahydroindolo[4,3-fg]quinoline-9-carboxamide]	7.2 min	193 µL/min/mg	10.0 min	139 µL/min/mg	5.58 nM	16.8 min	82.7 µL/min/mg	5.23	5.53	< 5.00	< 5.00	−0.65%					
CCN(CC)C(=O)[C@@H]1C=C2c3cccc4[nH]c(Br)c(c34)C[C@H]2N(CCC(F)(F)F)C1 [Compound 42, (6aR,9R)-5-bromo-N,N-diethyl-7-(3,3,3-trifluoropropyl)-4,6,6a,7,8,9-hexahydroindolo[4,3-fg]quinoline-9-carboxamide]					1.84 nM		125 µL/min/mg	< 5.00	< 6.00	< 5.00	< 5.00	9.13%	11.1 min	33.13%	no agonist activity	8.29%	2.58%
CC[C@@H](C)NC(=O)[C@@H]1C=C2c3cccc4[nH]c(Br)c(c34)C[C@H]2N(C)C1 [Compound 43, (6aR,9R)-5-bromo-N—((R)-sec-butyl)-7-methyl-4,6,6a,7,8,9-hexahydroindolo[4,3-fg]quinoline-9-carboxamide]					1.13 nM		56 µL/min/mg	6.51	6.93	< 5.00	< 5.00	6.30%	24.8 min	83.76%		39.32%	1.00%
CCC(CC)NC(=O)[C@@H]1C=C2c3cccc4[nH]c(Br)c(c34)C[C@H]2N(C)C1 [Compound 44, (6aR,9R)-5-bromo-N-(pentan-3-yl)-7-methyl-4,6,6a,7,8,9-hexahydroindolo[4,3-fg]quinoline-9-carboxamide]					0.76 nM		153 µL/min/mg	5.90	6.89	< 5.00	< 5.00	16.56%	9 min	68.53%		29.90%	15.68%
CCC[C@@H](C)NC(=O)[C@@H]1C=C2c3cccc4[nH]c(Br)c(c34)C[C@H]2N(C)C1 [Compound 45, (6aR,9R)-5-bromo-N—((R)-pentan-2-yl)-7-methyl-4,6,6a,7,8,9-hexahydroindolo[4,3-fg]quinoline-9-carboxamide]					0.38 nM		176 µL/min/mg	6.61	6.88	< 5.00	< 5.00	12.53%	7.9 min	87.10%		22.28%	−0.31%
CCCN1C[C@H](C(=O)N[C@H](C)CC)C=C2c3cccc4[nH]c(Br)c(c34)C[C@H]21 [Compound 46, (6aR,9R)-5-bromo-N—((R)-sec-butyl)-7-propyl-4,6,6a,7,8,9-hexahydroindolo[4,3-fg]quinoline-9-carboxamide]					1.03 nM		427 µL/min/mg	5.93	6.96	6.15	6.10	69.48%	3.2 min	78.76%		69.48%	79.00%
CCCN1C[C@H](C(=O)N2[C@@H](C)C[C@@H]2C)C=C2c3cccc4[nH]c(Br)c(c34)C[C@H]21 [Compound 47, ((6aR,9R)-5-bromo-7-propyl-4,6,6a,7,8,9-hexahydroindolo[4,3-fg]quinolin-9-yl)((2S,4S)-2,4-dimethylazetidin-1-yl)methanone]					1.38 nM		249 µL/min/mg	5.30	6.93	7.03	5.84	62.15%	5.6 min	76.22%		57.01%	87.01%
CN1C[C@H](C(=O)N2CCCC2)C=C2c3cccc4[nH]cc(c34)C[C@H]21 [Int22, ((6aR,9R)-7-methyl-4,6,6a,7,8,9-hexahydroindolo[4,3-fg]quinolin-9-yl)(pyrrolidin-1-yl)methanone]					14.9 nM		< 9.6 µL/min/mg	8.13	7.68	8.05	7.26	103.7%	> 145 min	94.25%		89.65%	21.35%
